Structures are written as SMILES.

By logP is commonly meant the decadic logarithm of the partition coefficient of the neutral form, usually between octanol and water. Read a low logP as a more hydrophilic compound. The molecule `OC/C=C/C#CC#Cc1ccccc1` yielded a logP of 2.48.

`CC#CC#CC#C/C=C\C(=O)OC` displayed a logP of 2.42. Next, `C/C=C/C#CC#Cc1ccccc1`: 4.76. In the case of `CC=CC#CC=C1C=CC(=O)O1`, the logP turned out to be 2.09. In the case of `O=C/C=C/C#CC#Cc1ccccc1` it was 3.09; in that of `CC#CC#Cc1ccc(C#CC(Cl)COC(C)=O)s1` (stereo unspecified), 4.6. In turn, `C=CC#Cc1ccc(-c2cccs2)s1` displayed a logP of 5.15. In the case of `C/C=C/C#CC#CC#C/C=C/C(Cl)CO` (stereo unspecified) it was 3.91; in that of `c1csc(-c2ccc(-c3cccs3)s2)c1`, 5.57; in that of `CC#CC#CC#Cc1ccccc1`, 4.91. As for `C/C=C/C#CC#C/C=C/C(=O)OC`, the logP amounted to 2.45.

(Values after the SangsterLogP compilation.)
